According to patent US20090105343A1, “Cancer Therapy And Medicaments Therefor” (The University of Birmingham, priority 2004, published 2009):
“Also recorded” adds a separate entry of the source.

Tests used:
Format in all cases: cell-based
RT-4 = assay: Proliferation assay (ATP bioluminescence), RT-4 bladder cancer cells; settings: Homo sapiens; RT-4 cells, 96 h; read-out: Estimated dose required to inhibit bladder cancer cell proliferation by 50% (ED50)
Description: (§1) The action of individual agents alone and in combination was examined using a bioluminescent technique to measure changes in cellular ATP (ViaLight HS, LumiTech, Nottingham, U.K.) with previously optimised conditions according to the manufacturer's instructions (Rashid, S. F. et al. Supra). Briefly, cells were plated in 96 well white-walled tissue culture-treated plates (Fisher Scientific Ltd. Loughborough, U.K.) (cancer cell lines at 2×10^3 cells/well; PrEC at 3.5×10^3 cells/well). […] After the incubation period, 100 μl of nucleotide releasing reagent was added to each well and cells were left for 30 minutes at room temperature. Liberated ATP was quantitated by adding 20 μl of ATP monitoring reagent (containing luciferin and luciferase) and measuring luminescence with a microplate luminometer (Berthold Detection Systems, Fisher Scientific Ltd.). ATP levels were recorded in relative luciferase units and growth inhibition was expressed as a percentage of control.

EJ-28 = assay: Proliferation assay (ATP bioluminescence), EJ-28 bladder cancer cells; settings: for Sensitivity of EJ-28 proliferation to ligand treatment: EJ-28 cells, ligand alone
Description: as §1

DU-145 cells = assay: Cell cycle analysis (propidium iodide flow cytometry); settings: DU-145, 1 μM, after 24 hr (ctrl 41%)
Description: The effect of nuclear receptor ligands in combination with the HDAC inhibitors on the cell cycle was measured by staining DNA with propidium iodide (PI). Briefly, T25 flasks were seeded with 2.5×10^5 sub-confluent, exponentially proliferating cells, exposed to 100 nM 1α,25(OH)2D3 alone or combined with either 300 μM NaB or 15 nM TSA at times 0 (and re-dosed after 48 hours in 72 and 96 hr assays). After a total of 24, 48, 72 and 96 hours, cultures were harvested by trypsinising, counted and 1×10^6 cells were stained with PI buffer (10 μg/ml PI, 1% (w/v) tri-sodium citrate, 0.1% (v/v) Triton X-100, 100 μM sodium chloride (Sigma)). Cell cycle distribution was determined using a Becton-Dickinson Flow Cytometer and CellFIT Cell-Cycle Analysis software.

p21^(waf1/cip1) = assay: Upregulation of CDKI p21(waf1/cip1); settings: 2 μM
Description: (§2) Cells were seeded at a density of 2×10^4/cm^2 and allowed to grow for 36 h to ensure that cells were in mid-exponential phase upon treatment. Total RNA was extracted using the GenElute RNA extraction system (Sigma) according to manufacturer's instructions. Primary cultures were serially passaged and grown to 80% confluency in standard serum-free medium. Cells were fed one day prior to isolation of total RNA using the Qiagen RNeasy Midi kit (Qiagen, Palo Alto, Calif., USA).
(§3) For real time reverse transcription-polymerase chain reaction (RT-PCR), cDNA was prepared from 1 μg of total RNA by reverse transcription with Mu-MLV (Promega Southampton, UK) at 42° C. for 60 min in the presence of 100 mM Tris-HCl, pH 9.0, 500 mM KCl and 2 mM MgCl2, 100 μM random hexamers (Pharmacia, Pisacataway, N.J.), 2 mM dNTP and 20 U RNAsin (Promega) in a 20 μl reaction volume.
(§4) Expression of specific mRNAs was quantitated using the ABI PRISM 7700 Sequence Detection System. […]
(§5) Data were expressed as Ct values (the cycle number at which logarithmic PCR plots cross a calculated threshold line) and used to determine δCt values (δCt=Ct of the target gene minus Ct of the housekeeping gene). […]

GADD45α [1] = assay: GADD45α gene induction (Q-RT-PCR); settings: 0.1 μM, 8 hr
Description: as §2, §3, §4, §5

[2] = test system: prostate cancer cell lines; assay: Proliferation assay (ATP bioluminescence), prostate cancer cell lines, single agents and combinations
Description: as §1
The interactions of two compounds were assessed by measuring the mean of either the nuclear receptor ligand or the HDAC inhibitor acting alone or in combination. The mean observed combined effect was compared to the individual effects of the agents added together, using the Student's t-test. […] All other analyses were also compared using the Student's t-test.

GADD45α [3] = assay: GADD45α induction in PC-3 cells after SMRT knock down; settings: SMRT knocked down by RNAi
Text: SIRNA fragments (22mers) were generated in vitro using a Dicer generation system according to the manufacturer's protocol (Gene Therapy Systems, San Diego, Calif.). Briefly, a 650 bp region from the human SMRT gene sequence corresponding to 112 to 762 was amplified using the following primers containing T7 promoter sequences;
FS: 5′-[…]-3′ and RV: 5′-[…]-3′. This was subsequently cloned into the pGEM T easy vector (Promega), using the multiple cloning sites to allow for sequencing, large scale harvest. Digestion with ECoR1 released a pure concentrated template for in vitro […] with primers containing T7 recognition sequences to generate double stranded mRNA. This was subsequently cleaved with recombinant human Dicer enzyme to generate a pool of 22mers which cover the region targeted in the 5′prime region of the SMRT gene. Five hundred ng of purified double stranded RNA 22mers were transfected into each well (2×10^5 cells/well in 24-well plates) for 12 hrs. Cells were then left for a further 72 hr to allow gene silencing and subsequently treated with 1α,25(OH)2D3 (100 nM) for 6 hr and total RNA was harvested and Q-RT-PCR for SMRT and target genes was undertaken as above.

| Structure (SMILES) | EC50 (RT-4) [µM] | ligand action in EJ-28 cells on co-treatment with SAHA (EJ-28; EJ-28, co-treatment with SAHA) | Sensitivity of EJ-28 proliferation to ligand treatment (EJ-28) | cells in G1 (DU-145 cells) [%] | upregulation of the CDKI p21(waf1/cip1) (p21^(waf1/cip1)) | GADD45α induction, individual agent alone (GADD45α [1]) | interaction of the ligand with SAHA on proliferation ([2]; co-treatment with SAHA, listed as 1α,25(OH)2D3) | augmentation of the ligand's action by TSA ([2]; co-treatment with TSA) | GADD45α induction by ligand alone after SMRT knock down (GADD45α [3]) |
| --- | --- | --- | --- | --- | --- | --- | --- | --- | --- |
| C[C@H](CCC(=O)O)[C@H]1CC[C@H]2[C@@H]3[C@H](O)C[C@@H]4C[C@H](O)CC[C@]4(C)[C@H]3CC[C@]12C [CDA, chenodeoxycholic acid] | 11 | restored the actions | insensitive |  |  |  |  |  |  |
| O=C(CCCCCCC(=O)Nc1ccccc1)NO [SAHA, Suberoylanilide hydroxamic acid] |  |  |  | 64 | potent and immediate upregulation | not significant |  |  |  |
| C=C1/C(=C\C=C2/CCC[C@]3(C)[C@@H]([C@H](C)CCCC(C)(C)O)CC[C@@H]23)C[C@@H](O)C[C@@H]1O [Vit D, 1α,25-dihydroxyvitamin D3] |  |  | insensitive |  |  |  | did not appear to extend; also recorded: does not | augments | very strongly enhanced |
